The source of these data is article PMC5484141, “Asperentin B, a New Inhibitor of the Protein Tyrosine Phosphatase 1B” (Marine Drugs, 2017).

Converted amounts (≈) assume the structure as drawn. “And” between values parts separate entries of the source, which are not always exact repeats. Equal entries are not always repeated. “Also recorded” adds a separate entry of the source. Where two headings read alike, the source gives them in different places. Some results are limits rather than exact numbers.

Series [1] has as its system leukemia cell line P388. Details: method as in PMID 17958319. As to conditions: cited from earlier work.
The test system of series [2] is PTP1B. Details: method as in PMID 25819098. The settings on record: read-out: IC50 value against PTP1B; cited from earlier work.
The test system of series [3] is Staphylococcus lentus DSM 6672. The series can be described thus: Antimicrobial activity against Staphylococcus lentus. Type of series: cell-based. The settings on record: concentrations of 100 μM (stated for 1).
Procedure: (§1) Antimicrobial activities of compounds 1 and 2 against Bacillus subtilis DSM 347, Staphylococcus lentus DSM 6672, Propionibacterium acnes, Xanthomonas campestris, and Septoria tritici, as well as the cytotoxic activity against the cell lines HepG3 (hepatocellular carcinoma) and HT29 (colon adenocarcinoma) were assayed as described by Schneemann et al. [27].
Series [4] concerns Candida albicans DSM 1386. The series can be described thus: Growth of human pathogenic yeast Candida albicans. Format: cell-based. As to conditions: concentrations of 100 μM.
Procedure: (§2) Antimicrobial activities of compounds 1 and 2 against Bacillus subtilis DSM 347, Staphylococcus lentus DSM 6672, Propionibacterium acnes, Xanthomonas campestris, and Septoria tritici, as well as the cytotoxic activity against the cell lines HepG3 (hepatocellular carcinoma) and HT29 (colon adenocarcinoma) were assayed as described by Schneemann et al. [27]. The effect on the growth of human pathogenic yeast, Candida albicans DSM 1386, was measured according to Ohlendorf et al. [28]. The activity of compound 2 against the dermatophyte Trichophyton mentagrophytes was tested as described by Nagel et al. [29].
Series [5] relates to Septoria tritici. In words: Antimicrobial activity against Septoria tritici. Type of series: cell-based.
Procedure: as §2
Series [6] relates to Xanthomonas campestris. In words: Antimicrobial activity against Xanthomonas campestris. Format: cell-based. As to conditions: concentrations of 100 μM (stated for 1).
Procedure: as §1
Series [7] relates to Bacillus subtilis DSM 347. In words: Antimicrobial activity against Bacillus subtilis. Format: cell-based. The settings on record: concentrations of 100 μM (stated for 1).
Procedure: as §1
The target in series [8] is T1, human recombinant protein tyrosine phosphatase 1B (PTP1B) (Homo sapiens, UniProt P18031).
T1 construct: purchased Biomol SE332-0050
T1 sequence (P18031 1-322 limits assumed): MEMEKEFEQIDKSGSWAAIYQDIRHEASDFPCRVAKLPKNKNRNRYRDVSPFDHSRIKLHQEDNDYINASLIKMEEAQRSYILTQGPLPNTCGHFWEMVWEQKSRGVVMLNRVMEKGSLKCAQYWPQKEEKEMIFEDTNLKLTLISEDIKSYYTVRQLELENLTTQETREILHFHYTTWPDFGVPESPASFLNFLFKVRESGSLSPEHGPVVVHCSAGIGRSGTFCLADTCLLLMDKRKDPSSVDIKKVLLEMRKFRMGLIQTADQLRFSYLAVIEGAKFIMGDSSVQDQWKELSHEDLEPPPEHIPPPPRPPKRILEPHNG
The series can be described thus: PTP1B inhibition assay with substrate IR5 (Biomol green phosphate detection). Format: biochemical. The procedure:
The effect of 1 and 2 on human recombinant protein tyrosine phosphatase 1B (PTP1B) was tested in microtiter plates. […] After warming for 10 min to the assay temperature of 30 °C 5 μL of human recombinant PTP1B (Biomol; CatNo. SE332-0050) stock solution (1 ng/μL) were added. The reaction was started with 50 μL of the substrate IR5 (insulin receptor amino acids 1142–1153 with pTyr at position 1146 (Biosyntan, Berlin, Germany) dissolved in PTP1B assay buffer to a concentration of 0.15 mM. The phosphopeptid IR5 comprises the amino acid sequence Thr-Arg-Asp-Ile-p[…]COOH and is part of the autophosphorylation domain of the insulin receptor (IR). After an incubation period of 25 min at 30°C the reaction was stopped by adding 150 μL of Biomol green (Biomol, CatNo. AK111-0250). PTP1B dephosphorylates the IR5 substrate resulting in the release of orthophosphate which was quantified after incubating for 20 min at 620 nm using the microtiter plate reader Infinite M200 (Tecan Group Ltd., Männedorf, Switzerland). […] IC50 values were determined as duplicates.

Series [9] relates to HT29 (colon adenocarcinoma). In words: Cytotoxic activity against HT29. Type of series: cell-based. As to conditions: test concentrations up to 50 μM (stated for 1).
Procedure: as §1
The test system of series [10] is Propionibacterium acnes. The series can be described thus: Antimicrobial activity against Propionibacterium acnes. Type of series: cell-based.
Procedure: as §1
Series [11] relates to HepG2. The series can be described thus: Cytotoxic activity against HepG2. Type of series: cell-based. The settings on record: test concentrations up to 50 μM.
Procedure: as §2
Series [12] concerns Colletotrichum gleosporoides. Further details: method as in PMID 25517217. The settings on record: cited from earlier work.
The subject of series [13] is Bacillus brevis. Further details: method as in PMID 646581. As to conditions: cited from earlier work.
Series [14] relates to dermatophytes, including Trichophyton rubrum. Details: method as in PMID 5169000. The settings on record: cited from earlier work.
Series [15] deals with Rhizoctonia solani. Further details: method as in PMID 5169000. The settings on record: cited from earlier work.
The test system of series [16] is etiolated wheat coleoptile. Details: method as in PMID 8229019. The settings on record: concentration of 1 mM; cited from earlier work.
The subject of series [17] is Trichophyton mentagrophytes. The series can be described thus: Activity against the dermatophyte Trichophyton mentagrophytes. Format: cell-based. As to conditions: read-out: inhibition of T. mentagrophytes in comparison to the positive control clotrimazole, concentration of 100 μM.
Procedure: as §2
Series [18] concerns Sarcina lutea. Further details: method as in PMID 646581. As to conditions: cited from earlier work.
The test system of series [19] is Arthrobacter citreus. Further details: method as in PMID 646581. As to conditions: cited from earlier work.
Series [20] has as its system Botrytis cinerea. Further details: method as in PMID 25517217. The settings on record: cited from earlier work.
The subject of series [21] is glycogen synthase kinase GSK-3 β. Further details: method as in PMID 27801816. The settings on record: cited from earlier work.
The subject of series [22] is PTP1B. Details: method as in earlier work. As to conditions: substrate p-nitrophenyl phosphate; ref 13 (McCain et al.); read-out: IC50 value against PTP1B; cited from earlier work.
The subject of series [23] is Micrococcus flavus. Further details: method as in PMID 5169000. The settings on record: cited from earlier work.
On the set-up of series [24]: method as in doi:10.1007/s11802-014-2216-2. As to conditions: cited from earlier work.

`CC(=O)C(C)c1oc(C)c(C)c(=O)c1C` (stereo not shown) [2,3,5-trimethyl-6-(3-oxobutan-2-yl)-4H-pyran-4-one]: the “cytotoxic effects on P388” value in [1] is given as “cytotoxic effects”.

As for `C/C=C/[C@H]1CC(=O)c2cc(C)c(O)c(C)c2O1` [(2R)-2,3-dihydro-7-hydroxy-6,8-dimethyl-2-[(E)-prop-1-enyl]chromen-4-one], the “cytotoxic effects on P388” value in series [1] is “cytotoxic effects”.

In general, IC50 refers to the concentration at which inhibition is half-maximal. On to `CCCCCCCCCCCCCCCC(=O)C1=C(O)[C@@H](CO)OC1=O` [RK-682, (R)-4-Hydroxy-5-(hydroxymethyl)-3-(1-oxohexadecyl)-2(5H)-furanone], for which the IC50 in series [2] was 4.5 µM.

`CC1CCCC(CC2Cc3c(O)c(O)cc(O)c3C(=O)O2)O1` (stereo not shown) [compound 1, Asperentin B]: in series [3], the “antibiotic activity against Staphylococcus lentus” value was “No antibiotic activity; also recorded: did not exhibit”. Besides, the “antibiotic activity against Candida albicans” value in series [4] was “No antibiotic activity”. Moreover, the “antibiotic activity against Septoria tritici (in words)” value in series [5] (concentrations of 100 μM) is reported as “No antibiotic activity”. Further, the “antibiotic activity against Xanthomonas campestris” value in series [6] is recorded as “No antibiotic activity; also recorded: did not exhibit”. In addition, in series [7], the “antibiotic activity against Bacillus subtilis” value is on record as “No antibiotic activity; also recorded: did not exhibit”. Further, in series [8] (in vitro, duplicates, read-out: IC50 value against PTP1B), the IC50 was 2.05 µM and 2 µM. Further, the “cytotoxic effects against HT29” value in series [9] was “did not exhibit cytotoxic activities”. In addition, the inhibition at 100 µM in series [10] (Cutibacterium acnes, 100 μM test concentration) worked out at 57%. Also, in series [11], the “cytotoxic effects against HepG2” value is “No activities were not found”.

As to `C[C@H]1CCC[C@H](C[C@H]2Cc3cc(O)cc(O)c3C(=O)O2)O1` [compound 2, asperentin], the “antibiotic activity against Staphylococcus lentus” value in series [3] was “did not exhibit”. For the same molecule, the inhibition at 100 µM in [5] (Zymoseptoria tritici, read-out: inhibition of S. tritici in comparison to the positive control clotrimazole, concentration of 100 μM) amounted to 83%; in [17], 100%. For the same molecule, in [6], the “antibiotic activity against Xanthomonas campestris” value is reported as “did not exhibit”. Moreover, the “activity against Colletotrichum gleosporoides” value in series [12] is listed as “active”. For the same molecule, the “MIC, Bacillus brevis” value in series [13] is 0.05 µg/mL (≈ 0.171 µM). In addition, the “minimum inhibitory concentration (MIC), five dermatophytes including Trichophyton rubrum” value in series [14] was 75 µg/mL (≈ 257 µM). Further, in series [15], the “minimum inhibitory concentration (MIC), Rhizoctonia solani” value is 75 µg/mL (≈ 257 µM). The “antibiotic activity against Bacillus subtilis” value in [7] is recorded as “did not exhibit; also recorded: not inhibited”. For the same molecule, the “growth inhibition, etiolated wheat coleoptile assay” value in series [16] was 81%. In series [8], the “inhibition of PTP1B enzymatic activity (in words)” value is listed as “did not show any activity; also recorded: did not show any inhibition”. Also, the “cytotoxic effects against HT29” value in series [9] is listed as “did not exhibit cytotoxic activities”. In addition, in series [18], the “MIC, Sarcina lutea” value was 2000 µg/mL (≈ 6840 µM). Further, the “activity against P. acnes (in words)” value in series [10] was “did not show any activity”. Further, the “MIC, Arthrobacter citreus” value in [19] is 1 µg/mL (≈ 3.42 µM). Also, the “activity against Botrytis cinerea” value in [20] is reported as “active”.

Take `C[C@H]1CCC[C@@H](C[C@H]2Cc3cc(O)cc(O)c3C(=O)O2)O1` [isoasperentin, reference compound]: in series [16], the “growth inhibition, etiolated wheat coleoptile assay” value is reported as 100%.

Turning to `Cc1cc2cc(O)cc(O)c2c2oc(=O)cc(O)c12` [pannorin], the “inhibition of GSK-3 β (in words)” value in [21] is on record as “inhibitor”.

`Cc1ccc(C(=O)Nc2ccc(S(=O)(=O)O)c3cc(S(=O)(=O)O)cc(S(=O)(=O)O)c23)cc1NC(=O)c1cccc(NC(=O)Nc2cccc(C(=O)Nc3cc(C(=O)Nc4ccc(S(=O)(=O)O)c5cc(S(=O)(=O)O)cc(S(=O)(=O)O)c45)ccc3C)c2)c1` [suramin]: the IC50 in series [22] was 11 µM.

Regarding “Monoacetyl asperentin [reference compound]”, in series [23], the “MIC, Micrococcus flavus” value was 75 µg/mL. The “MIC, four dermatophytes including Trichophyton rubrum” value in series [14] was 75 µg/mL.

On to brevianamide W, for which the antioxidant activity entry in series [24] was “antioxidant activity”.

Regarding “dimethyl asperentin [reference compound]”, in series [13], the “MIC, Bacillus brevis” value is 10 µg/mL. In addition, in [18], the “MIC, Sarcina lutea” value was over 100 µg/mL. Also, in [19], the “MIC, Arthrobacter citreus” value was over 100 µg/mL.
